# Experimental data: patent US20250325645A1, “BOVINE VIRAL DIARRHEA VIRUS IMMUNOGENIC COMPOSITIONS AND METHODS OF USE THEREOF” (KANSAS STATE UNIVERSITY RESEARCH FOUNDATION, priority 2021, published 2025)
# Tested on: CD8+ T cells from BVDV-immunized steers
# Experiment: MHC I blocking ELISPOT assay
# Conditions: steers 2539 and 2593; 2.5 μg/ml peptide; mAbs H58A and PT85A at 1.0 μg/ml vs IgG2a isotype control; p<0.05
# Procedure: Co-cultures of CD8+ T cells and autologous CD14+ monocytes from one TGAC-immunized steer (2539) and one A125-immunized steer (2593), were incubated with 2.5 μg/ml of peptide in the presence of either the two anti-bovine MHC I mAbs or IgG2a isotype control. The IFN-γ+CD8+ T cell responses in the presence or absence of anti-bovine MHC I mAbs were reported as SFC per million CD8+ T cells described as above.
# The results from MHC I blocking ELISPOT assay were analyzed by Wilcoxon test in GraphPad Prism 7 (Version 7.04, GraphPad Software, Inc. La Jolla, CA). The significance of the difference in peptide-specific IFN-γ+CD8+ T cell responses in the absence or presence of anti-bovine MHC I mAbs was determined by a non-parametric test and the level of significance was set at p<0.05.
row,Sequence,IFN-γ+CD8+ T cell recall responses in the presence of anti-bovine MHC I mAbs
1,FGAYAASPY [Peptide 86],significantly reduced
2,GPVYHRAPL [Peptide 61],significantly reduced
3,GSVWNLGKY [Peptide 56],significantly reduced
4,SEQKRTLLM [Peptide 37],significantly reduced
5,YFEPRDNYF [Peptide 100],significantly reduced
6,YYDDNLNEI [Peptide 64],significantly reduced
